Test results from EP1509519B1, “CRYSTALLINE FLUOROQUINOLONE ARGININE SALT FORM” (Wockhardt Limited, priority 2002, dated 2003).
Where “and” joins values, the source holds several entries; their conditions need not be identical. Equal entries are not always repeated.

Experiments:
bioavailability = assay: bioavailability; set-up: species or system mammals; conditions: in vivo
[1] = bulk density determination; format: physicochemical
Excerpt: Untapped density = 25 g/untapped volume. […] Tapped density = 25 g/Tapped volume.

[2] = mean mass diameter determination (laser diffraction); conditions: for Mean mass diameter: individual samples made by the procedure of example 1, laser diffraction
[3] = water

Molecule: CC1CCc2c(N3CCC(O)CC3)c(F)cc3c(=O)c(C(=O)O)cn1c23.N=C(N)NCCC[C@@H](N)C(=O)O (racemic) [RS-(±)-9-fluoro-6,7-dihydro-8-(4-hydroxypiuenidin-1-yl)-5-methyl-1-oxo-1H,5H-benzo[i,j]quinolizine-2-carboxylic acid D-argirrine salt]
- antimicrobial activity (antimicrobial activity): have antimicrobial activity

Molecule: R-(+)-9-fluoro-6,7-dihydro-8-(4-hydroxypiperidin-1-yl)-5-methyl-1-oxo-1H,5H-benzo [ij]-quinolizine-2-carboxylic acid DL-arginine salt
- antimicrobial activity (antimicrobial activity): have antimicrobial activity

Molecule: C[C@H]1CCc2c(N3CCC(O)CC3)c(F)cc3c(=O)c(C(=O)O)cn1c23
- bioavailability (bioavailability): favorable bioavailability
- Bulk density (tapped) ([1]; 25 gm/tapped volume, tapped 150 times): 0.64 g/mL
- Bulk density (untapped) ([1]; 25 gm/untapped volume): 0.57 g/mL
- Mean mass diameter ([2]; hydrate): less than or equal to 40 µm
- Mean mass diameter ([2]; listed as Example 1, hydrate): 32.92 µm and 24.22 µm and 34.51 µm and 39.07 µm
- Mean mass diameter, mean value ([2]; mean of four samples): 32.68 µm

Molecule: C[C@@H]1CCc2c(N3CCC(O)CC3)c(F)cc3c(=O)c(C(=O)O)cn1c23.N=C(N)NCCC[C@@H](N)C(=O)O [R-(+)-9-fluoro-6,7-dihydro-8-(4-hydroxypiperidin-1-yl)-5-methyl-1-oxo-1H,5H-benzo[i,j]quinolizine-2-carboxylic acid D-arginine salt]
- antimicrobial activity (antimicrobial activity): have antimicrobial activity

Molecule: CC1CCc2c(N3CCC(O)CC3)c(F)cc3c(=O)c(C(=O)O)cn1c23.N=C(N)NCCC[C@H](N)C(=O)O (racemic) [RS-(±)-9-fluoro-6,7-dihydro-8-(4-hydroxypiperidin-1-yl)-5-methyl-1-oxo-1H,5H-benzo[i,j]quinolizine-2-carboxylic acid L-arginine salt]
- antimicrobial activity (antimicrobial activity): have antimicrobial activity

Molecule: C[C@H]1CCc2c(N3CCC(O)CC3)c(F)cc3c(=O)c(C(=O)O)cn1c23 [reference compound]
- antimicrobial activity compared with the R-(+)- and RS-(±)-acids (antimicrobial activity): more potent antimicrobial activity
- aqueous solubility [3]: 0.8 to 2.0 mg/mL

Molecule: C[C@@H]1CCc2c(N3CCC(O)CC3)c(F)cc3c(=O)c(C(=O)O)cn1c23.N=C(N)NCCC[C@H](N)C(=O)O [R-(+)-9-fluoro-6,7-dihydro-8-(4-hydroxypipe-1-yl)-5-1-oxo-1H,5H-benzo[i,j]quinolizine-2-carboxylic acid L-arginine salt]
- antimicrobial activity (antimicrobial activity): have antimicrobial activity

Molecule: CC1CCc2c(N3CCC(O)CC3)c(F)cc3c(=O)c(C(=O)O)cn1c23.N=C(N)NCCCC(N)C(=O)O (racemic) [R, S-9-fluoro-6,7-dihydro-8-(4-hydroxypiperidin-1-yl)-5-methyl-1-oxo-1H,5H-benzo [i,j]-quinolizine-2-carboxylic acid DL-arginine salt]
- antimicrobial activity (antimicrobial activity): have antimicrobial activity

Molecule: S-(-)-9-fluoro-6,7-dihydro-8-(4-hydroxypiperidin-1-yl)-5-methyl-1-oxo-1H,5H-benzo [ij]-quinolizine-2-carboxylic acid DL-arginine salt
- antimicrobial activity (antimicrobial activity): have antimicrobial activity
